Each structure is given as a SMILES string.

The first test concerns MV-4-11 cells. As to the kind of experiment: Inhibition of tumor cell proliferation (CellTiter-Glo). Conditions: Homo sapiens, MV4-11, 72 h, read-out: IC50 of inhibitory activity of tumor cell proliferation. In kind it is cell-based. The protocol: MV-4-11 cells were diluted with medium (RPM1640+10% FBS+1% PS) and plated at 4000 cells/well in a white-walled clear-bottom 96-well plate. MV-4-11 cells were plated and incubated in a 5% CO2, 37° C. incubator for 2 hours. Cells were treated with the indicated concentration of compound or DMSO (control), and placed in a 5% CO2, 37° C. incubator for 72 h after dosing. After the end of the culture, equilibrate at room temperature for 30 min, add 100 μl of CellTiter-Glo® Reagent to each well, and shake the microplate shaker for 2 min. After 10 min of incubation at room temperature, the luminescence was measured by a microplate reader, and the cell-free wells were used as the background wells. CC-90009 (celegen patent phase I) was used as a control, and its structural formula was as follows: 0
For `CC1(C)COP(=O)(Oc2ccc(C#CC(=O)NCc3ccc4c(c3)CN(C3CCC(=O)NC3=O)C4=O)cc2)OC1` (stereo not shown) [Compound 82], the IC50 lay in the range of 10 to 100 nM.

`CC1(C)COP(=O)(Oc2ccccc2C#CC(=O)NCc2ccc3c(c2)CN(C2CCC(=O)NC2=O)C3=O)OC1` (stereo not shown) [Compound 97]: the IC50 is 1 to 10 nM.

In the case of `O=C(C#Cc1ccccc1OC(=O)N1CCC(N2CCCCC2)CC1)NCc1ccc2c(c1)CN(C1CCC(=O)NC1=O)C2=O` (stereo not shown) [Compound 74], the IC50 is more than 100 nM.

Consider `O=C(C#Cc1ccc(OP(=O)(Oc2ccccc2)Oc2ccccc2)cc1)NCc1ccc2c(c1)CN(C1CCC(=O)NC1=O)C2=O` (stereo not shown) [Compound 81], for which the IC50 was less than 1 nM.

For the compound `O=C(C#Cc1ccc(OC(=O)N2CCC(N3CCCCC3)CC2)cc1)NCc1ccc2c(c1)CN(C1CCC(=O)NC1=O)C2=O` (stereo not shown) [Compound 72], the IC50 was more than 100 nM.

Still in this test, the particulars now being: Homo sapiens, MV4-11; MV-4-11 cells, 72 h, CellTiter-Glo; read-out: IC50 of inhibitory activity of tumor cell proliferation.
In the case of `O=C(C#Cc1ccc(Cl)c(C(=O)O)c1)NCc1ccc2c(c1)CN(C1CCC(=O)NC1=O)C2=O` (stereo not shown) [Compound 104], the IC50 is less than 1 nM.

Consider `CCOC(=O)c1ccc(C#CC(=O)NCc2ccc3c(c2)CN(C2CCC(=O)NC2=O)C3=O)nc1` (stereo not shown) [Compound 29], for which the IC50 was more than 100 nM.

As to `Nc1ccc(-c2ccc(C#CC(=O)NCc3ccc4c(c3)CN(C3CCC(=O)NC3=O)C4=O)cc2)cc1` (stereo not shown) [Compound 56], the IC50 was less than 1 nM.

Regarding `O=C(C#Cc1ccc2nccn2c1)NCc1ccc2c(c1)CN(C1CCC(=O)NC1=O)C2=O` (stereo not shown) [Compound 45], the IC50 is more than 100 nM.

Regarding `Cc1ccnc(Cl)c1C#CC(=O)NCc1ccc2c(c1)CN(C1CCC(=O)NC1=O)C2=O` (stereo not shown) [Compound 67], the IC50 fell in the range of 1 to 10 nM.

With `O=C(C#Cc1ccc(O)c(Cl)c1)NCc1ccc2c(c1)CN(C1CCC(=O)NC1=O)C2=O` (stereo not shown) [Compound 101], the IC50 is 10 to 100 nM.

`O=C(C#Cc1cc2ccccc2o1)NCc1ccc2c(c1)CN(C1CCC(=O)NC1=O)C2=O` (stereo not shown) [Compound 98]: the IC50 lay in the range of 1 to 10 nM.

In the case of `O=C(/C=C/c1ccccc1)NCc1ccc2c(c1)CN(C1CCC(=O)NC1=O)C2=O` (stereo not shown) [Compound 15], the IC50 was in the range of 1 to 10 nM.

Take `O=C(C#Cc1ccc(F)nc1F)NCc1ccc2c(c1)CN(C1CCC(=O)NC1=O)C2=O` (stereo not shown) [Compound 41]: the IC50 lay in the range of 1 to 10 nM.

Regarding `CC(C)(C)OC(=O)c1cccc(C#CC(=O)NCc2ccc3c(c2)CN(C2CCC(=O)NC2=O)C3=O)c1` (stereo not shown) [Compound 70], the IC50 is less than 1 nM.

In the case of `O=C(C#Cc1ccccc1)NCc1ccc2c(c1)CN(C1CCC(=O)NC1=O)C2=O` (stereo not shown) [Compound 11], the IC50 was less than 1 nM.

For the compound `O=C(C#Cc1ccc(F)cc1)NCc1ccc2c(c1)CN(C1CCC(=O)NC1=O)C2=O` (stereo not shown) [Compound 3], the IC50 was less than 1 nM.

Regarding `O=C(C#Cc1ccc2scnc2c1)NCc1ccc2c(c1)CN(C1CCC(=O)NC1=O)C2=O` (stereo not shown) [Compound 121], the IC50 was less than 1 nM.

Regarding `Cn1cnc2c(C#CC(=O)NCc3ccc4c(c3)CN(C3CCC(=O)NC3=O)C4=O)cccc21` (stereo not shown) [Compound 133], the IC50 fell in the range of 1 to 10 nM.

With `O=C(C#Cc1ccc(Cl)cn1)NCc1ccc2c(c1)CN(C1CCC(=O)NC1=O)C2=O` (stereo not shown) [Compound 27], the IC50 fell in the range of 1 to 10 nM.

Take `Cc1c(O)cccc1C#CC(=O)NCc1ccc2c(c1)CN(C1CCC(=O)NC1=O)C2=O` (stereo not shown) [Compound 114]: the IC50 lay within 1 to 10 nM.

Turning to `O=C(C#Cc1cnc(Cl)cc1Cl)NCc1ccc2c(c1)CN(C1CCC(=O)NC1=O)C2=O` (stereo not shown) [Compound 39], the IC50 was in the range of 1 to 10 nM.

For `O=C(C#CC(O)c1ccccc1)NCc1ccc2c(c1)CN(C1CCC(=O)NC1=O)C2=O` (stereo not shown) [Compound 115], the IC50 was more than 100 nM.

On to `Cc1cccc(C#CC(=O)NCc2ccc3c(c2)CN(C2CCC(=O)NC2=O)C3=O)c1O` (stereo not shown) [Compound 113], for which the IC50 was less than 1 nM.

Regarding `O=C(C#Cc1ccc2ncoc2c1)NCc1ccc2c(c1)CN(C1CCC(=O)NC1=O)C2=O` (stereo not shown) [Compound 122], the IC50 lay within 10 to 100 nM.

Turning to `CC(C)(C)OC(=O)CCC(=O)Oc1ccc(C#CC(=O)NCc2ccc3c(c2)CN(C2CCC(=O)NC2=O)C3=O)cc1` (stereo not shown) [Compound 87], the IC50 was in the range of 10 to 100 nM.

Regarding `Cc1cc(F)c(C#CC(=O)NCc2ccc3c(c2)CN(C2CCC(=O)NC2=O)C3=O)c(F)c1` (stereo not shown) [Compound 13], the IC50 is less than 1 nM.

For the compound `CCCC(=O)OCOC(=O)c1cccc(C#CC(=O)NCc2ccc3c(c2)CN(C2CCC(=O)NC2=O)C3=O)c1` (stereo not shown) [Compound 95], the IC50 is more than 100 nM.

Regarding `Cc1ccc(C#CC(=O)NCc2ccc3c(c2)CN(C2CCC(=O)NC2=O)C3=O)nc1` (stereo not shown) [Compound 28], the IC50 lay within 1 to 10 nM.

With `O=C(C#Cc1ccc(C(F)(F)F)cn1)NCc1ccc2c(c1)CN(C1CCC(=O)NC1=O)C2=O` (stereo not shown) [Compound 34], the IC50 lay in the range of 10 to 100 nM.

As for `CC(=O)Oc1ccc(C#CC(=O)NCc2ccc3c(c2)CN(C2CCC(=O)NC2=O)C3=O)cc1` (stereo not shown) [Compound 32], the IC50 is 1 to 10 nM.

Turning to `O=C(C#Cc1ccc(Cl)nc1)NCc1ccc2c(c1)CN(C1CCC(=O)NC1=O)C2=O` (stereo not shown) [Compound 59], the IC50 was 10 to 100 nM.

Regarding `Cc1ccc(C#CC(=O)NCc2ccc3c(c2)CN(C2CCC(=O)NC2=O)C3=O)cc1N` (stereo not shown) [Compound 52], the IC50 was less than 1 nM.

For `O=C(C#Cc1ccc2c(c1)OCO2)NCc1ccc2c(c1)CN(C1CCC(=O)NC1=O)C2=O` (stereo not shown) [Compound 24], the IC50 was less than 1 nM.

For the compound `O=C(C#Cc1ccc(O)cc1Cl)NCc1ccc2c(c1)CN(C1CCC(=O)NC1=O)C2=O` (stereo not shown) [Compound 109], the IC50 is 1 to 10 nM.

Turning to `O=C(C#Cc1ccc2[nH]ncc2c1)NCc1ccc2c(c1)CN(C1CCC(=O)NC1=O)C2=O` (stereo not shown) [Compound 107], the IC50 is 10 to 100 nM.

Regarding `O=C(C#CN1CCCC1)NCc1ccc2c(c1)CN(C1CCC(=O)NC1=O)C2=O` (stereo not shown) [Compound 126], the IC50 is more than 100 nM.

For `O=C(C#Cc1coc2ccccc12)NCc1ccc2c(c1)CN(C1CCC(=O)NC1=O)C2=O` (stereo not shown) [Compound 99], the IC50 is less than 1 nM.

As to `O=C(C#CC1CC1)NCc1ccc2c(c1)CN(C1CCC(=O)NC1=O)C2=O` (stereo not shown) [Compound 61], the IC50 was more than 100 nM.

`CC(C)C(=O)Oc1ccccc1C#CC(=O)NCc1ccc2c(c1)CN(C1CCC(=O)NC1=O)C2=O` (stereo not shown) [Compound 73]: the IC50 is 1 to 10 nM.

On to `CCCC(=O)OCOC(=O)c1ccccc1C#CC(=O)NCc1ccc2c(c1)CN(C1CCC(=O)NC1=O)C2=O` (stereo not shown) [Compound 94], for which the IC50 was more than 100 nM.

Take `O=C(C#Cc1cccc(Cl)n1)NCc1ccc2c(c1)CN(C1CCC(=O)NC1=O)C2=O` (stereo not shown) [Compound 40]: the IC50 lay within 1 to 10 nM.

With `CC(C)(C)OC(=O)c1ccccc1C#CC(=O)NCc1ccc2c(c1)CN(C1CCC(=O)NC1=O)C2=O` (stereo not shown) [Compound 69], the IC50 was less than 1 nM.

Consider `O=C(C#Cc1ccc2ocnc2c1)NCc1ccc2c(c1)CN(C1CCC(=O)NC1=O)C2=O` (stereo not shown) [Compound 123], for which the IC50 was less than 1 nM.

In the case of `CC(C)(C)OC(=O)N1CCCCC1C#CC(=O)NCc1ccc2c(c1)CN(C1CCC(=O)NC1=O)C2=O` (stereo not shown) [Compound 63], the IC50 was less than 1 nM.

For `O=C(C#Cc1ccc(Cl)cc1C(=O)O)NCc1ccc2c(c1)CN(C1CCC(=O)NC1=O)C2=O` (stereo not shown) [Compound 90], the IC50 was more than 100 nM.

In the case of `O=C(C#Cc1cc(O)ccc1Cl)NCc1ccc2c(c1)CN(C1CCC(=O)NC1=O)C2=O` (stereo not shown) [Compound 79], the IC50 was 1 to 10 nM.

Regarding `O=C(C#Cc1ccc(Cl)cc1F)NCc1ccc2c(c1)CN(C1CCC(=O)NC1=O)C2=O` (stereo not shown) [Compound 4], the IC50 was less than 1 nM.

As for `O=C(C#Cc1ccc2nc[nH]c(=O)c2c1)NCc1ccc2c(c1)CN(C1CCC(=O)NC1=O)C2=O` (stereo not shown) [Compound 128], the IC50 was 10 to 100 nM.

On to `O=C(C#CC1CCCCN1C(=O)C(F)(F)F)NCc1ccc2c(c1)CN(C1CCC(=O)NC1=O)C2=O` (stereo not shown) [Compound 85], for which the IC50 was in the range of 10 to 100 nM.

As to `Cn1cnc2ccc(C#CC(=O)NCc3ccc4c(c3)CN(C3CCC(=O)NC3=O)C4=O)cc21` (stereo not shown) [Compound 132], the IC50 fell in the range of 10 to 100 nM.

As to `COc1cccc(C#CC(=O)NCc2ccc3c(c2)CN(C2CCC(=O)NC2=O)C3=O)c1` (stereo not shown) [Compound 46], the IC50 was less than 1 nM.

Turning to `O=C(C#CCN1CCCC1)NCc1ccc2c(c1)CN(C1CCC(=O)NC1=O)C2=O` (stereo not shown) [Compound 125], the IC50 is more than 100 nM.

Turning to `CC(C)(C)[Si](C)(C)OCC#CC(=O)NCc1ccc2c(c1)CN(C1CCC(=O)NC1=O)C2=O` (stereo not shown) [Compound 21], the IC50 is less than 1 nM.

With `Cc1cc(O)ccc1C#CC(=O)NCc1ccc2c(c1)CN(C1CCC(=O)NC1=O)C2=O` (stereo not shown) [Compound 112], the IC50 lay in the range of 1 to 10 nM.

`Nc1cccc(C#CC(=O)NCc2ccc3c(c2)CN(C2CCC(=O)NC2=O)C3=O)c1` (stereo not shown) [Compound 84]: the IC50 was 1 to 10 nM.

Consider `O=C(C#Cc1c(F)cccc1F)NCc1ccc2c(c1)CN(C1CCC(=O)NC1=O)C2=O` (stereo not shown) [Compound 9], for which the IC50 was less than 1 nM.

Consider `CC(=O)c1ccc(C#CC(=O)NCc2ccc3c(c2)CN(C2CCC(=O)NC2=O)C3=O)cc1` (stereo not shown) [Compound 118], for which the IC50 was in the range of 1 to 10 nM.

With `O=C(C#Cc1ccc(CC(F)F)cc1)NCc1ccc2c(c1)CN(C1CCC(=O)NC1=O)C2=O` (stereo not shown) [Compound 2], the IC50 was less than 1 nM.

Take `O=C(C#Cc1cc(C(=O)O)c(F)cc1F)NCc1ccc2c(c1)CN(C1CCC(=O)NC1=O)C2=O` (stereo not shown) [Compound 91]: the IC50 lay within 1 to 10 nM.

On to `O=C(C#CC1CCCCC1)NCc1ccc2c(c1)CN(C1CCC(=O)NC1=O)C2=O` (stereo not shown) [Compound 62], for which the IC50 was less than 1 nM.

Regarding `Nc1cc(F)ccc1C#CC(=O)NCc1ccc2c(c1)CN(C1CCC(=O)NC1=O)C2=O` (stereo not shown) [Compound 50], the IC50 lay within 1 to 10 nM.

For `O=C(C#Cc1ccccc1Cl)NCc1ccc2c(c1)CN(C1CCC(=O)NC1=O)C2=O` (stereo not shown) [Compound 8], the IC50 was less than 1 nM.

Regarding `CC(C)(C)OC(=O)CCC(=O)Oc1ccccc1C#CC(=O)NCc1ccc2c(c1)CN(C1CCC(=O)NC1=O)C2=O` (stereo not shown) [Compound 89], the IC50 fell in the range of 1 to 10 nM.
